Tests used:
Format in all cases: cell-based
SW480 colon cancer cells = test: Cell viability assay (CellTiter-Blue), four days; settings: Homo sapiens, 96 h; for EC50: CellTiter-Blue cell viability; for inhibition at 10 µM: read-out: percent inhibition at 10 μM (given for EC50 of >10 μM)
Method in brief: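 Resazurin reduction (Ex 560/Em 590 nm, ~3 h reagent incubation) served as the viability read-out after SW480 cells were treated for four days at 37 °C. Doses ran from 10 μM down to 0.0045 μM in eight 1:3 steps. Curves fitted non-linearly for EC50, else % inhibition at 10 μM reported.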

[1] = test system: Wnt activity (Wnt-responsive human Sp5 promoter, TCF/LEF binding sites) in SW480 colon carcinoma cells; test: Wnt activity screening assay: Sp5-Luc luciferase reporter gene in SW480 cells; settings: for EC50: 10-point dose-response from 10 μM, incubated overnight; for inhibition at 10 µM: given for EC50 of >10 μM, read-out: percent inhibition at 10 μM
Method in brief: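 Luminescence read-out (BrightGlo) from stable Sp5-Luc SW480 cells, normalized to DMSO-only wells. Cells were treated overnight at 37° C in 1% FBS medium across a 1:3, 10-point series starting at 10 μM. EC50 from variable-slope four-parameter regression; percent inhibition at 10 μM given where EC50 >10 μM.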

[2] = test system: Primary human fibroblasts derived from IPF patients (LL29 cells) treated with TGF-β1; test: Inhibition of the fibrotic process: αSMA staining in TGF-β1 treated fibroblasts; settings: Fibroblast, 96 h, LL29 fibroblasts treated with TGF-β1, 4 days; for inhibition at 10 µM: read-out: percent inhibition in brackets beside EC50 >10 μM
Method in brief: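 EC50 values come from non-linear fits of the αSMA-positive percentage among SYTOX-excluded live cells, normalized to TGF-β1 plus DMSO controls, or appear as % inhibition at 10 μM when above 10 μM. Fibrosis was induced in IPF-derived LL29 fibroblasts by 20 ng/mL TGF-β1 over 4 days, with 1:2 compound dilutions from 10 μM.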

EC50 (SW480 colon cancer cells) [nM] | EC50 [1] [nM] | SMILES | EC50 [2] [nM] | inhibition at 10 µM (SW480 colon cancer cells) [%] | inhibition at 10 µM [1] [%] | inhibition at 10 µM [2] [%]
455 | 803 | CN(C)c1cncc(-c2ccc3[nH]nc(-c4nc5c(-c6cccs6)nccc5[nH]4)c3n2)c1 [Compound 343, N,N-Dimethyl-5-(3-(4-(thiophen-2-yl)-1H-imidazo[4,5-c]pyridin-2-yl)-1H-pyrazolo[4,3-b]pyridin-5-yl)pyridin-3-amine] | 477 |  |  | 
641 | 1060 | CN(C)Cc1cncc(-c2ccc3[nH]nc(-c4nc5c(-c6cccc(F)c6)nccc5[nH]4)c3n2)c1 [Compound 13, 1-(5-(3-(4-(3-Fluorophenyl)-1H-imidazo[4,5-c]pyridin-2-yl)-1H-pyrazolo [4,3-b]pyridin-5-yl)pyridin-3-yl)-N,N-dimethylmethanamine] | 1690 |  |  | 
322 | 1280 | COc1cncc(-c2ccc3[nH]nc(-c4nc5c(-c6cccc(F)c6)nccc5[nH]4)c3n2)c1 [Compound 516, 3-(4-(3-Fluorophenyl)-1H-imidazo[4,5-c]pyridin-2-yl)-5-(5-methoxypyridin-3-yl)-1H-pyrazolo[4,3-b]pyridine] | 93 |  |  | 
> 10000 | 456 | Oc1cncc(-c2ccc3[nH]nc(-c4nc5c(-c6cccnc6)nccc5[nH]4)c3n2)c1 [Compound 565, 5-(3-(4-(Pyridin-3-yl)-1H-imidazo[4,5-c]pyridin-2-yl)-1H-pyrazolo[4,3-b]pyridin-5-yl)pyridin-3-ol] | 797 | 32.7 |  | 
> 10000 | > 10000 | O=C(Nc1cncc(-c2ccc3[nH]nc(-c4nc5c(-c6cccs6)nccc5[nH]4)c3n2)c1)C1CC1 [Compound 356, N-(5-(3-(4-(Thiophen-2-yl)-1H-imidazo[4,5-c]pyridin-2-yl)-1H-pyrazolo [4,3-b]pyridin-5-yl)pyridin-3-yl)cyclopropanecarboxamide] | 5590 | 1.5 | 4.1 | 
1620 | 3480 | CN(C)CCOc1cncc(-c2ccc3[nH]nc(-c4nc5c(-c6cccc(F)c6)nccc5[nH]4)c3n2)c1 [Compound 515, 2-((5-(3-(4-(3-Fluorophenyl)-1H-imidazo[4,5-c]pyridin-2-yl)-1H-pyrazolo [4,3-b]pyridin-5-yl)pyridin-3-yl)oxy)-N,N-dimethylethan-1-amine] | 865 |  |  | 

Continued, molecule first:

SMILES | EC50 (SW480 colon cancer cells) [nM] | EC50 [1] [nM] | EC50 [2] [nM] | inhibition at 10 µM (SW480 colon cancer cells) [%] | inhibition at 10 µM [1] [%] | inhibition at 10 µM [2] [%]
CC(C)Nc1cncc(-c2ccc3[nH]nc(-c4nc5c(-c6cc(F)cc(NCCN(C)C)c6)nccc5[nH]4)c3n2)c1 [Compound 460, N^1-(3-Fluoro-5-(2-(5-(5-(isopropylamino)pyridin-3-yl)-1H-pyrazolo[4,3-b]pyridin-3-yl)-1H-imidazo[4,5-c]pyridin-4-yl)phenyl)-N^2,N^2-dimethylethane-1,2-diamine] | 585 | 1030 | 732 |  |  | 
Cn1cc(-c2ccc3[nH]nc(-c4nc5c(-c6cccc(F)c6)nccc5[nH]4)c3n2)cn1 [Compound 508, 3-(4-(3-Fluorophenyl)-1H-imidazo[4,5-c]pyridin-2-yl)-5-(1-methyl-1H-pyrazol-4-yl)-1H-pyrazolo[4,3-b]pyridine] | 2200 | 115 | 106 |  |  | 
CCCC(=O)Nc1cncc(-c2ccc3[nH]nc(-c4nc5c(-c6cc(F)cc(CNS(C)(=O)=O)c6)nccc5[nH]4)c3n2)c1 [Compound 493, N-(5-(3-(4-(3-Fluoro-5-(methylsulfonamidomethyl)phenyl)-1H-imidazo[4,5-c]pyridin-2-yl)-1H-pyrazolo[4,3-b]pyridin-5-yl)pyridin-3-yl)butyramide] | > 10000 | > 10000 | > 10000 | 4.3 | 15.1 | 0
CS(=O)(=O)NCc1cc(F)cc(-c2nccc3[nH]c(-c4n[nH]c5ccc(-c6cncnc6)nc45)nc23)c1 [Compound 503, N-(3-Fluoro-5-(2-(5-(pyrimidin-5-yl)-1H-pyrazolo[4,3-b]pyridin-3-yl)-1H-imidazo[4,5-c]pyridin-4-yl)benzyl)methanesulfonamide] | > 10000 | > 10000 | > 10000 | 0.8 | 18.7 | 0
Fc1cccc(-c2nccc3[nH]c(-c4n[nH]c5ccc(-c6cnccn6)nc45)nc23)c1 [Compound 520, 3-(4-(3-Fluorophenyl)-1H-imidazo[4,5-c]pyridin-2-yl)-5-(pyrazin-2-yl)-1H-pyrazolo[4,3-b]pyridine] | > 10000 | > 10000 | > 10000 | 6.6 | 12.2 | 2.4
Fc1cccc(-c2nccc3[nH]c(-c4n[nH]c5ccc(C6CCNCC6)nc45)nc23)c1 [Compound 505, 3-(4-(3-Fluorophenyl)-1H-imidazo[4,5-c]pyridin-2-yl)-5-(piperidin-4-yl)-1H-pyrazolo[4,3-b]pyridine] | > 10000 | > 10000 | 3800 | 0.4 | 11.9 | 
O=C(Nc1cncc(-c2ccc3[nH]nc(-c4nc5c(-c6cccc(F)c6)nccc5[nH]4)c3n2)c1)C1CC1 [Compound 20, N-(5-(3-(4-(3-Fluorophenyl)-1H-imidazo[4,5-c]pyridin-2-yl)-1H-pyrazolo [4,3-b]pyridin-5-yl)pyridin-3-yl)cyclopropanecarboxamide] | > 10000 | > 10000 | > 10000 | 6 | 14.7 | 14.1
CC(C)CC(=O)Nc1cncc(-c2ccc3[nH]nc(-c4nc5c(-c6cccc(F)c6)nccc5[nH]4)c3n2)c1 [Compound 2, N-(5-(3-(4-(3-Fluorophenyl)-1H-imidazo[4,5-c]pyridin-2-yl)-1H-pyrazolo [4,3-b]pyridin-5-yl)pyridin-3-yl)-3-methylbutanamide] | 2700 | 8630 | > 10000 |  |  | 25.1
Cc1ccc(-c2nccc3[nH]c(-c4n[nH]c5ccc(-c6cncc(NC(=O)C(C)C)c6)nc45)nc23)s1 [Compound 401, N-(5-(3-(4-(5-Methylthiophen-2-yl)-1H-imidazo[4,5-c]pyridin-2-yl)-1H-pyrazolo [4,3-b]pyridin-5-yl)pyridin-3-yl)isobutyramide] | > 10000 | > 10000 | 2520 | 2.5 | 17.2 | 
c1cncc(-c2nccc3[nH]c(-c4n[nH]c5ccc(-c6cncc(OC7CCCCC7)c6)nc45)nc23)c1 [Compound 559, 5-(5-(Cyclohexyloxy)pyridin-3-yl)-3-(4-(pyridin-3-yl)-1H-imidazo[4,5-c]pyridin-2-yl)-1H-pyrazolo[4,3-b]pyridine] | > 10000 | 3250 | 2730 | 18 |  | 
CCCCC(=O)Nc1cncc(-c2ccc3[nH]nc(-c4nc5c(-c6cc(F)cc(NCCN(C)C)c6)nccc5[nH]4)c3n2)c1 [Compound 467, N-(5-(3-(4-(3-((2-(Dimethylamino)ethyl)amino)-5-fluorophenyl)-1H-imidazo[4,5-c]pyridin-2-yl)-1H-pyrazolo[4,3-b]pyridin-5-yl)pyridin-3-yl)pentanamide] | > 10000 | > 10000 | 1190 | 0 | 0 | 
c1cc(-c2nccc3[nH]c(-c4n[nH]c5ccc(-c6cncc(OC7CCNCC7)c6)nc45)nc23)ccn1 [Compound 576, 5-(5-(Piperidin-4-yloxy)pyridin-3-yl)-3-(4-(pyridin-4-yl)-1H-imidazo[4,5-c]pyridin-2-yl)-1H-pyrazolo[4,3-b]pyridine] | > 10000 | > 10000 | 2390 | 24.6 | 17.9 | 
CN(C)CCNc1cc(F)cc(-c2nccc3[nH]c(-c4n[nH]c5ccc(-c6ccccn6)nc45)nc23)c1 [Compound 476, N^1-(3-Fluoro-5-(2-(5-(pyridin-2-yl)-1H-pyrazolo[4,3-b]pyridin-3-yl)-1H-imidazo[4,5-c]pyridin-4-yl)phenyl)-N^2,N^2-dimethylethane-1,2-diamine] | 6250 | 8650 | 1720 |  |  | 
Cc1ccc(-c2nccc3[nH]c(-c4n[nH]c5ccc(-c6cncc(NC(=O)C7CCCC7)c6)nc45)nc23)s1 [Compound 414, N-(5-(3-(4-(5-Methylthiophen-2-yl)-1H-imidazo[4,5-c]pyridin-2-yl)-1H-pyrazolo[4,3-b]pyridin-5-yl)pyridin-3-yl)cyclopentanecarboxamide] | > 10000 | > 10000 | > 10000 | 0.4 | 23.8 | 46.2

— US10195185B2, “3-(1H-imidazo[4,5-C]pyridin-2-yl)-1H-pyrazolo[4,3-B]pyridines and therapeutic uses thereof” (Samumed, LLC, priority 2015, dated 2019)
